Test results reported in publication PMC10459118, “The Effect of Plastic-Related Compounds on Transcriptome-Wide Gene Expression on CYP2C19-Overexpressing HepG2 Cells” (Molecules, 2023).

Legend:
[1] = Resazurin reduction assay (growth inhibition / cytotoxicity); conditions: human
Protocol: (§1) To investigate the effects of the in silico identified compounds on cell viability, we used CYP2C19-overexpressing HepG2 cells (Figure 3). Different concentrations (ranging from 0.003 to 100 μM) were tested.
(§2) Figure 3 Resazurin assay of cytochrome P450 2C19-overexpressing HepG2 cells treated with different concentrations of the six selected compounds. All experiments were performed in three replicate measurements of mean ± SD.
(§3) CYP2C19-overexpressing HepG2 cells were originated as previously described. Cells were grown in DMEM medium (DMEM, 31966021, Gibco™, Billings, MT, USA) at 37 °C and 5% CO2 in a humidified incubator. DMEM media were supplemented with 10% fetal bovine serum (FBS) and with 3 μg/mL blasticidin (ant-bl-05, InvivoGen, San Diego, CA, USA) to preserve the selection of transfected CYP2C19-overexpressing HepG2 cells.
(§4) Aliquots of 10^4 CYP2C19-overexpressing HepG2 cells were seeded per well into 96-well plates. Cells were treated with different concentrations of the selected compounds with a range from 0.003 to 100 µM in a total volume of 200 µL for 72 h. Successively, 20 µL/well of resazurin 0.01% w/v (Sigma Aldrich, Taufkirchen, Germany) was added. The fluorescence intensity was measured with an Infinite M200 Pro-plate reader (Tecan, Crailsheim, Germany). Dose–response curves were engendered for three independent experiments for each compound, and 50% inhibition concentrations (IC50) were calculated. The analysis was represented using the […] GraphPad Software (version 9.5.1) (La Jolla, CA, USA).

[2] = system: CYP2C19-overexpressing HepG2 cells; assay: as above; conditions: CYP2C19-overexpressing HepG2 cells, 0.003 to 100 μM, 72 h
Protocol: as §1, §2, §3, §4

[3] = system: CYP2C19-overexpressing HepG2 cells; assay: RNA sequencing with pathway enrichment analysis; type: cell-based; conditions: for genes of 'cholesterol biosynthetic process' influenced by only one compound: Venn diagram of compounds 4-6, vs DMSO; for genes of 'DNA replication' pathway exclusively influenced by the compound: Venn diagram of compounds 4 and 6, vs DMSO
Protocol: Functional enrichment analysis with clusterProfiler was executed using the gene ontology biological process annotation. Finally, with the GeneTonic software (version 2.4.0), a visual summary of the influenced pathways, from here on referred to as 'enriched pathways', was created. […] The size of the dots corresponds to the number of genes in the reference gene set. […] Control cells were treated with 0.2% DMSO. After 24 h of incubation, the cells were harvested. RNA extraction was performed with an […] RNA Mini Kit (Invitek Molecular GmbH, Berlin, Germany) according to the manufacturer's instructions. The cell pellet was lysed with 350 μL of Lysis Solution and treated with β-mercaptoethanol. After DNA removal, 350 μL of 70% ethanol was added, and the sample was applied onto the RNA-RTA spin filter. After several washing steps, RNA was eluted with 60 μL of Elution Buffer R, and the concentration and purity were measured with NanoDrop. RNA sequencing was performed by […] GmbH, Mainz, Germany. The quality of the extracted RNA was verified by the company with a 2100 Bioanalyzer system (Agilent Technologies, Santa Clara, CA, USA). After mRNA isolation and library preparation using a NEBNext^© UltraTM II Directional RNA Library Prep Kit (New England Biolabs, Ipswich, MA, USA), RNA sequencing of around 25 Mio PE reads (2 × 12.5 M reads, 2 × 150 nt) was performed with an Illumina NextSeq 2000TM system. Each treatment and control group included two replicates. The FastQC tool (0.12.0, https://www.bioinformatics.babraham.ac.uk/projects/fastqc/) (accessed 15 February 2023) was used for quality control on the sequencing data. Transcript abundance estimates were computed with Salmon (version 1.5.0) with a transcriptome index generated by GENCODE (version 38) and then summarized to the gene level with the […] package (version 1.16.0). Exploration, modelling, and interpretation of the expression data followed the protocols defined by Ludt et al. […] Exploratory data analysis was performed with the pcaExplorer package (version 2.24.0). […] Accurate estimation of the effect sizes (described as log2-fold changes) was performed using the […] shrinkage estimator (version 1.20.0). Further analyses included gene ontology pathway enrichment by topGO (version 2.50.0) using all expressed genes as a background dataset and the ideal package (version 1.22.0) and by clusterProfiler (version 4.6.0) with default settings and the log2-fold change as the input.

[4] = system: CYP2C19-overexpressing HepG2 cells; type: cell-based
Protocol: Figure 8 Flow cytometric cell cycle analysis of cytochrome CYP2C19-overexpressing HepG2 cells treated with IC50 concentrations of compounds 4 and 6. The data are represented as mean and SD of three independent experiments. (* p < 0.05, ** p < 0.01, compared to DMSO-treated cells).
CYP2C19-overexpressing HepG2 cells were treated with IC50 concentrations of compounds 4 and 6 for 24 h. Then, the cells were fixed using 80% cold ethanol and stored overnight at −20 °C. Successively, the cells were washed twice with PBS and resuspended in 1 mL of cold PBS containing 1mg/mL RNaseA (Sigma-Aldrich, Taufkirchen, Germany) and 50 μg/mL PI (Sigma-Aldrich, Taufkirchen, Germany). After 15 min of incubation, the measurements were performed using a BD LSRFortessa™ Cell Analyzer (Becton-Dickinson, Heidelberg, Germany). DMSO-treated cells were used as a negative control.

[5] = IC50 concentration, 24 h, vs DMSO

Row | SMILES | IC50 at 72 h [1] [µM] | cell death mechanisms 'autophagy' and 'process utilizing autophagic mechanism' [3, 5] | mitosis-related pathways ('mitotic sister chromatid segregation', 'sister chromatid segregation', 'regulation of mitotic sister chromatid separation', 'chromosome organization') [3, 5] | pathway 'DNA replication' [3, 5] | pathways 'cholesterol metabolic process' and 'sterol metabolic process' [3, 5] | pathways 'cytokine production' and 'regulation of cytokine production' [3, 5] | genes of 'cholesterol biosynthetic process' influenced by only one compound [3] | genes of 'DNA replication' pathway exclusively influenced by the compound [3] | affected genes related to 'regulation of cytokine production' ([3]; vs DMSO) [genes] | G0/G1 population [4] [%] | percentage change in the sub-G0 and G2/M phases [4] | percentage of S-phase cells [4] [%] | also measured
1 | O=C(OC1CCCCC1)c1ccccc1C(=O)OC1CCCCC1 [compound 1, dicyclohexyl phthalate] | 88 ± 7.77 |  |  |  |  |  |  |  |  |  |  |  | 
2 | CC(C)COC(=O)c1ccccc1C(=O)OCC(C)C [compound 2, diisobutyl phthalate] | > 100 |  |  |  |  |  |  |  |  |  |  |  | cytotoxic effect [2]: did not exhibit any cytotoxic effect
3 | CC(C)(C)CC(C)(C)c1ccc(O)c(-n2nc3ccccc3n2)c1 [compound 3, octrizole] | 67.5 ± 2.05 |  |  |  |  |  |  |  |  |  |  |  | 
4 | Cc1cc(Cc2cc(C)cc(C(C)(C)C)c2O)c(O)c(C(C)(C)C)c1 [compound 4, 2,2′-methylene bis(6-tert-butyl-4-methylphenol)] | 18.6 ± 0.94 | activated | suppressed | suppressed | suppressed | activated | two | Forty-one | 82 | 74.11 ± 1.98 | No significant percentage change | 8.05 ± 1.92 | pathway 'DNA-templated DNA replication' [3, 5]: suppressed; pathway 'metaphase/anaphase transition of mitotic cell cycle' [3, 5]: suppressed
5 | CC(c1cc(C(C)(C)C)cc(C(C)(C)C)c1O)c1cc(C(C)(C)C)cc(C(C)(C)C)c1O [compound 5, 1,1-bis(3,5-di-tert-butyl-2-hydroxyphenyl)ethane] | 18.1 ± 0.68 | activated |  |  | suppressed | activated | three |  | 80 |  |  |  | pathways 'steroid biosynthetic process', 'alcohol biosynthetic pathway', 'alcohol metabolic process', 'organic hydroxy compound metabolic process' [3, 5]: suppressed
6 | Cc1cc(Cc2cc(C)cc(C3CCCCC3)c2O)c(O)c(C2CCCCC2)c1 [compound 6, 2,2′-methylene bis(6-cyclohexyl-4-methylphenol)] | 20.16 ± 0.06 |  | suppressed | suppressed |  |  | one | nine |  | 72.30 ± 1.68 | No significant percentage change | 6.76 ± 3.28 | angiogenesis-related pathways 'vasculature development', 'blood vessel morphogenesis', 'blood vessel development' [3, 5]: activated; pathway 'inflammatory response' [3, 5]: activated; pathway 'response to nutrients levels' [3, 5]: activated; pathways 'nuclear chromosome segregation', 'mitotic nuclear division', 'chromosome segregation' [3, 5]: down-regulated
